Assays:
[1] = tested on: Osteoclast precursor cells; assay: Osteoclast differentiation assay (acid phosphatase readout); assay type: cell-based
Description: Further, an osteoclast differentiation assay is used to assess the efficacy of Fms inhibitors for treating bone disease such as osteoarthritis. On day 0, Osteoclast Medium BulletKit (Lonza catalog #PT-8001, containing Media, FBS, L-Glutamine, PenStrep, RANKL, and M-CSF) media is thawed and the FBS, L-glutamine and PenStrep from the kit is added to 100 mL of Osteoclast Precursor Basal medium to provide the Osteoclast Precursor Growth Medium (OPGM). This is warmed to 37° C. Osteoclast precursor cells (Lonza catalog #2T-110) frozen in cryovial are warmed to 37° C. and transferred to a 50 mL conical tube. The cryovial is rinsed with OPGM and added dropwise to the conical tube of cells with swirling, then the volume is adjusted to 20-30 mL with addition of OPGM. The cells are centrifuged at 200×g for 15 minutes at room temperature and all but approximately 3 mL of supernatant is removed to a new conical tube. The cells are suspended in the remaining supernatant and the volume is adjusted to 10-15 mL with OPGM added dropwise with swirling. The cells are centrifuged at 200×g for 15 minutes at room temperature and all but approximately 1 mL of supernatant is removed. The cells are resuspended in the remaining supernatant, counted, and the volume adjusted with an appropriate amount of OPGM to provide approximately 1×10^5 cells/mL. A 0.1 mL aliquot of cells is added to each well of a 96-well plate. Compound to be tested is prepared in DMSO for plating at a high concentration of 2.5 mM, with 8 point 1:3 serial dilutions. A 1 μL aliquot of each compound dilution is added to a 96 well v-bottom polypropylene plate and 0.124 mL of OPGM is added to the compound. Then 50 μL at of the compound in OPGM is added to the osteoclast precursor cells in 96-well plate (providing highest test concentration of 5 μM). RANKL (2 μg) from the BulletKit is reconstituted in 1 mL of OPGM, then vortexed and centrifuged briefly. A 792 μL at aliquot of RANKL is added to 6 mL of OPGM and 50 μL at is added to low control wells. Then 76.6 μL M-CSF (10 μg/mL) from the BulletKit is added to the remaining 5.8 mL of OPGM/RANKL solution (4×RANKL/M-CSF/OPGM). A 50 μL at aliquot of this is added to the remaining wells, and the remainder is stored at 4° C. for later use. The plate is incubated at 37° C. for 6 days, then the remaining OPGM/RANKL/M-CSF solution is warmed to 37° C. The remaining approximately 198 μL is combined with 6 mL of OPGM. The media is aspirated from the osteoclast wells and 100 μL of RANKL/OPGM is added to the low controls. The remaining RANKL/OPGM is combined with the approximately 18.5 μL of remaining M-CSF. The remaining 4×RANKL/M-CSF/OPGM from day 0 is diluted to 1× and combined with the freshly prepared solution. A 0.1 mL aliquot of this is added to each osteoclast well and incubated for 37° C. for 1 day. The Acid Phosphatase kit (Cayman Chemical catalog #10008051) is warmed to room temperature. The assay buffer is diluted 5 mL with 45 mL of water. For each plate, two substrate tablets are dissolved in 4.5 mL of the assay buffer, mixing by vortex to break up the tablet. Stop solution is diluted 12 mL with 36 mL of water. In a tissue culture hood, 20 μL of each osteoclast well supernatant is transferred to a 96 well plate. A 30 μL aliquot of the substrate solution is added to each well and incubated at 37° C. for 20 minutes, then added 100 μL stop solution to each well. The absorbance of each well is read at 405 nm on Safire plate reader. The absorbance reading is plotted vs. concentration to provide the IC50 for each compound.

[2] = Relative solubility by turbidity in aqueous buffers (pH 1.5, 4.5, 6.8, 7.4); assay type: physicochemical; conditions: for turbidity threshold (L, M, H) 1.4: pH 1.5 (SGF); for turbidity threshold (L, M, H) 4.5: pH 4.5 (SIF); for turbidity threshold (L, M, H) 6.8: pH 6.8 (SIF); for turbidity threshold (L, M, H) 7.4: pH 7.4 (HEPES)
Procedure, shortened: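 Reported value: concentration at which optical density at 490, 535 and 650 nm passes 0.01, taken as the mean of the three wavelengths. Buffers were 0.5M NaCl pH 1.5, 0.05M NaH2PO4 pH 4.5 or 6.8, and 10 mM HEPES/150 mM NaCl pH 7.4, each receiving serial 1:1 DMSO dilutions of a 25 mM stock.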

IC50 [1] | Compound | turbidity threshold (L, M, H) 1.4 [2] | turbidity threshold (L, M, H) 4.5 [2] | turbidity threshold (L, M, H) 6.8 [2] | turbidity threshold (L, M, H) 7.4 [2]
< 100 nM | CCOc1ccc(Nc2ccc(Cc3c[nH]c4ncnc(OC)c34)c(F)n2)cn1 [Compound P-4005, (6-Ethoxy-pyridin-3-yl)-[6-fluoro-5-(4-methoxy-7H-pyrrolo[2,3-d]pyrimidin-5-ylmethyl)-pyridin-2-yl]-amine] | M (moderate solubility if the threshold concentration is 31.3 μM to 250 μM) | L (low solubility if the threshold concentration is <31.3 μM) | L (low solubility if the threshold concentration is <31.3 μM) | L (low solubility if the threshold concentration is <31.3 μM)
< 100 nM | CCOc1ccc(Nc2ccc(Cc3c[nH]c4ncnc(C)c34)c(F)n2)cn1 [Compound P-4006, (6-Ethoxy-pyridin-3-yl)-[6-fluoro-5-(4-methyl-7H-pyrrolo[2,3-d]pyrimidin-5-ylmethyl)-pyridin-2-yl]-amine] | H (high solubility if the threshold concentration is >250 μm) | L (low solubility if the threshold concentration is <31.3 μM) | L (low solubility if the threshold concentration is <31.3 μM) | L (low solubility if the threshold concentration is <31.3 μM)
< 100 nM | CCc1ccc(Nc2ccc(Cc3c[nH]c4ncnc(OC)c34)c(F)n2)cn1 [Compound P-4007, (6-Ethyl-pyridin-3-yl)-[6-fluoro-5-(4-methoxy-7H-pyrrolo[2,3-d]pyrimidin-5-ylmethyl)-pyridin-2-yl]-amine] | M (moderate solubility if the threshold concentration is 31.3 μM to 250 μM) | L (low solubility if the threshold concentration is <31.3 μM) | L (low solubility if the threshold concentration is <31.3 μM) | L (low solubility if the threshold concentration is <31.3 μM)
< 100 nM | CCOc1ccc(Nc2ccc(Cc3c[nH]c4ncnc(OCCOC)c34)c(F)n2)cn1 [Compound P-4008, (6-Ethoxy-pyridin-3-yl)-{6-fluoro-5-[4-(2-methoxy-ethoxy)-7H-pyrrolo[2,3-d]pyrimidin-5-ylmethyl]-pyridin-2-yl}-amine] | M (moderate solubility if the threshold concentration is 31.3 μM to 250 μM) | M (moderate solubility if the threshold concentration is 31.3 μM to 250 μM) | M (moderate solubility if the threshold concentration is 31.3 μM to 250 μM) | M (moderate solubility if the threshold concentration is 31.3 μM to 250 μM)
< 100 nM | CCc1ccc(Nc2ccc(Cc3c[nH]c4ncnc(C)c34)c(F)n2)cn1 [Compound P-4009, (6-Ethyl-pyridin-3-yl)-[6-fluoro-5-(4-methyl-7H-pyrrolo[2,3-d]pyrimidin-5-ylmethyl)-pyridin-2-yl]-amine] | H (high solubility if the threshold concentration is >250 μm) | M (moderate solubility if the threshold concentration is 31.3 μM to 250 μM) | L (low solubility if the threshold concentration is <31.3 μM) | L (low solubility if the threshold concentration is <31.3 μM)
< 100 nM | COc1ncnc2[nH]cc(Cc3ccc(Nc4ccc(C)nc4)nc3F)c12 [Compound P-4010, [6-Fluoro-5-(4-methoxy-7H-pyrrolo[2,3-d]pyrimidin-5-ylmethyl)-pyridin-2-yl]-(6-methyl-pyridin-3-yl)-amine] | H (high solubility if the threshold concentration is >250 μm) | M (moderate solubility if the threshold concentration is 31.3 μM to 250 μM) | L (low solubility if the threshold concentration is <31.3 μM) | L (low solubility if the threshold concentration is <31.3 μM)
< 100 nM | CCn1cc(Nc2ccc(Cc3c[nH]c4ncnc(OC)c34)c(F)n2)cn1 [Compound P-4011, (1-Ethyl-1H-pyrazol-4-yl)-[6-fluoro-5-(4-methoxy-7H-pyrrolo[2,3-d]pyrimidin-5-ylmethyl)-pyridin-2-yl]-amine] | M (moderate solubility if the threshold concentration is 31.3 μM to 250 μM) | M (moderate solubility if the threshold concentration is 31.3 μM to 250 μM) | M (moderate solubility if the threshold concentration is 31.3 μM to 250 μM) | M (moderate solubility if the threshold concentration is 31.3 μM to 250 μM)
< 100 nM | CCOc1ncnc2[nH]cc(Cc3ccc(Nc4cnn(CC)c4)nc3F)c12 [Compound P-4012, [5-(4-Ethoxy-7H-pyrrolo[2,3-d]pyrimidin-5-ylmethyl)-6-fluoro-pyridin-2-yl]-(1-ethyl-1H-pyrazol-4-yl)-amine] | M (moderate solubility if the threshold concentration is 31.3 μM to 250 μM) | L (low solubility if the threshold concentration is <31.3 μM) | L (low solubility if the threshold concentration is <31.3 μM) | L (low solubility if the threshold concentration is <31.3 μM)
< 100 nM | CCn1cc(Nc2ccc(Cc3c[nH]c4ncnc(C)c34)c(F)n2)cn1 [Compound P-4013, (1-Ethyl-1H-pyrazol-4-yl)-[6-fluoro-5-(4-methyl-7H-pyrrolo[2,3-d]pyrimidin-5-ylmethyl)-pyridin-2-yl]-amine] | H (high solubility if the threshold concentration is >250 μm) | M (moderate solubility if the threshold concentration is 31.3 μM to 250 μM) | M (moderate solubility if the threshold concentration is 31.3 μM to 250 μM) | M (moderate solubility if the threshold concentration is 31.3 μM to 250 μM)
< 100 nM | CCn1cc(Nc2ccc(Cc3c[nH]c4ncnc(OCCOC)c34)c(F)n2)cn1 [Compound P-4014, (1-Ethyl-1H-pyrazol-4-yl)-{6-fluoro-5-[4-(2-methoxy-ethoxy)-7H-pyrrolo[2,3-d]pyrimidin-5-ylmethyl]-pyridin-2-yl}-amine] | M (moderate solubility if the threshold concentration is 31.3 μM to 250 μM) | M (moderate solubility if the threshold concentration is 31.3 μM to 250 μM) | M (moderate solubility if the threshold concentration is 31.3 μM to 250 μM) | M (moderate solubility if the threshold concentration is 31.3 μM to 250 μM)
< 100 nM | COCCOc1ncnc2[nH]cc(Cc3ccc(Nc4ccc(C)nc4)nc3F)c12 [Compound P-4015, {6-Fluoro-5-[4-(2-methoxy-ethoxy)-7H-pyrrolo[2,3-d]pyrimidin-5-ylmethyl]-pyridin-2-yl}-(6-methyl-pyridin-3-yl)-amine] | M (moderate solubility if the threshold concentration is 31.3 μM to 250 μM) | M (moderate solubility if the threshold concentration is 31.3 μM to 250 μM) | M (moderate solubility if the threshold concentration is 31.3 μM to 250 μM) | M (moderate solubility if the threshold concentration is 31.3 μM to 250 μM)
